# Starred links: 1 amine or outer side, 2 acyl side, 3 side chain; linkers in the order of their positions; H or OH if unused. Positions of bridges follow the written chain, without caps; N, C: chain ends. Non-standard residues stand in square brackets, D forms with d. Residues, ends and D or L forms follow the SMILES beside them. *: point of attachment. Pro(cis-4-guanidino) = NC(N)=N[C@@H]1CN[C@H](C(=O)O)C1; hTyr(3-COCH2NH2) = NCC(=O)c1cc(CC[C@H](N)C(=O)O)ccc1O; X7 = CCCCCCCCOc1ccc(-c2ccc(-c3ccc(C(=O)*)cc3)cc2)cc1; X3 = CCCCCCCCOc1ccc(N2CCN(c3ccc(C(=O)*)cc3)CC2)cc1; X5 = CCCCCCCCN1CCN(c2ccc(-c3ccc(C(=O)*)cc3)cc2)CC1; X6 = NCC(=O)[C@H]1C[C@@H](C(=O)[*:2])N([*:1])C1; Pro(4S-NH2) = N[C@@H]1CN[C@H](C(=O)O)C1; Hyp = O=C(O)[C@@H]1C[C@@H](O)CN1; Orn = NCCC[C@H](N)C(=O)O
# Tests used:
# Type in all cases: functional
# Candida albicans [1] = assay: Antifungal activity against Candida albicans CAF-2; conditions: Candida albicans; read-out: MIC
# Candida albicans [2] = assay: Antifungal activity against Candida albicans ATCC 10231; conditions: Candida albicans, ATCC 10231; read-out: MIC
# Kluyveromyces marxianus = assay: Antifungal activity against Candida kefyr ATCC 28838; conditions: Kluyveromyces marxianus, ATCC 28838; read-out: MIC
# Candida albicans [3] = assay: Antifungal activity against Candida albicans ATCC 38247; conditions: Candida albicans, ATCC 38247; read-out: MIC
# Candida albicans [4] = assay: Antifungal activity against Candida albicans ATCC 62376; conditions: Candida albicans, ATCC 62376; read-out: MIC
# [Candida] zeylanoides = Antifungal activity against Candida zeylanoides NRRL Y-112; conditions: Dujonia zeylanoides; read-out: MIC
# Nakaseomyces glabratus = assay: Antifungal activity against Torulopsis glabrata ATCC 15545; conditions: Nakaseomyces glabratus, ATCC 15545; read-out: MIC
# Naganishia albida = assay: Antifungal activity against Cryptococcus albidus ATCC 34140; conditions: Naganishia albida, ATCC 34140; read-out: MIC
# Candida albicans [5] = assay: Antifungal activity against Candida albicans 579A; conditions: Candida albicans; read-out: MIC
# Aspergillus niger = assay: Antifungal activity against Aspergillus niger ATCC 16404; conditions: Aspergillus niger, ATCC 16404; read-out: MIC
# Candida albicans [6] = assay: Antifungal activity against Candida albicans CCH 442; conditions: Candida albicans; read-out: MIC
Compound,MIC (Candida albicans [1]) [µg/mL],MIC (Candida albicans [2]) [µg/mL],MIC (Kluyveromyces marxianus) [µg/mL],MIC (Candida albicans [3]) [µg/mL],MIC (Candida albicans [4]) [µg/mL],MIC ([Candida] zeylanoides) [µg/mL],MIC (Nakaseomyces glabratus) [µg/mL],MIC (Naganishia albida) [µg/mL],MIC (Candida albicans [5]) [µg/mL],MIC (Aspergillus niger) [µg/mL],MIC (Candida albicans [6]) [µg/mL]
CCCCCCCCOc1ccc(N2CCN(c3ccc(C(=O)N[C@H]4CCCNC(=O)[C@@H]5C[C@H](N)CN5C(=O)[C@H]([C@@H](C)O)NC(=O)[C@H](CCc5ccc(O)c(C(=O)CN)c5)NC(=O)[C@@H]5C[C@@H](O)CN5C(=O)[C@H]([C@@H](C)O)NC4=O)cc3)CC2)cc1 (X3-[Orn]T[Hyp][hTyr(3-COCH2NH2)]T[Pro(4S-NH2)]; lactam 1-C),0.1,0.1,1.56,0.2,0.1,0.1,0.2,6.25,0.1,1.56,0.1
CCCCCCCCOc1ccc(N2CCN(c3ccc(C(=O)N[C@H]4CCCNC(=O)[C@@H]5C[C@H](N=C(N)N)CN5C(=O)[C@H]([C@@H](C)O)NC(=O)[C@H](CCc5ccc(O)c(C(=O)CN)c5)NC(=O)[C@@H]5C[C@@H](O)CN5C(=O)[C@H]([C@@H](C)O)NC4=O)cc3)CC2)cc1 (X3-[Orn]T[Hyp][hTyr(3-COCH2NH2)]T[Pro(cis-4-guanidino)]; lactam 1-C),0.1,0.78,0.78,0.39,0.78,3.12,0.78,6.25,0.39,6.25,0.78
CCCCCCCCOc1ccc(N2CCN(c3ccc(C(=O)N[C@H]4CCCNC(=O)[C@@H]5C[C@H](C(=O)CN)CN5C(=O)[C@H]([C@@H](C)O)NC(=O)[C@H](CCc5ccc(O)c(C(=O)CN)c5)NC(=O)[C@@H]5C[C@@H](O)CN5C(=O)[C@H]([C@@H](C)O)NC4=O)cc3)CC2)cc1 (X3-[Orn]T[Hyp][hTyr(3-COCH2NH2)]T[X6]; lactam 1-C),0.1,0.78,1.56,0.39,0.39,1.56,1.56,12.5,0.78,12.5,0.78
CCCCCCCCN1CCN(c2ccc(-c3ccc(C(=O)N[C@H]4CCCNC(=O)[C@@H]5C[C@H](C(=O)CN)CN5C(=O)[C@H]([C@@H](C)O)NC(=O)[C@H](CCc5ccc(O)c(C(=O)CN)c5)NC(=O)[C@@H]5CCCN5C(=O)[C@H]([C@@H](C)O)NC4=O)cc3)cc2)CC1 (X5-[Orn]TP[hTyr(3-COCH2NH2)]T[X6]; lactam 1-C),0.1,0.39,1.56,0.78,0.39,0.2,1.56,25,0.39,25,0.39
CCCCCCCCN1CCN(c2ccc(-c3ccc(C(=O)N[C@H]4CCCNC(=O)[C@@H]5C[C@H](N=C(N)N)CN5C(=O)[C@H]([C@@H](C)O)NC(=O)[C@H](CCc5ccc(O)c(C(=O)CN)c5)NC(=O)[C@@H]5C[C@@H](O)CN5C(=O)[C@H]([C@@H](C)O)NC4=O)cc3)cc2)CC1 (X5-[Orn]T[Hyp][hTyr(3-COCH2NH2)]T[Pro(cis-4-guanidino)]; lactam 1-C),0.1,0.2,1.56,0.2,0.2,0.2,1.56,12.5,0.2,3.12,0.1
CCCCCCCCOc1ccc(-c2ccc(-c3ccc(C(=O)N[C@H]4CCCNC(=O)[C@@H]5C[C@H](N)CN5C(=O)[C@H]([C@@H](C)O)NC(=O)[C@H](CCc5ccc(O)c(C(=O)CN)c5)NC(=O)[C@@H]5CCCN5C(=O)[C@H]([C@@H](C)O)NC4=O)cc3)cc2)cc1 (X7-[Orn]TP[hTyr(3-COCH2NH2)]T[Pro(4S-NH2)]; lactam 1-C),0.1,1.56,0.78,0.78,0.78,0.78,0.78,12.5,0.78,25,0.78
